# Laboratory results: article PMC11672547, “Combination of Coevolutionary Information and Supervised Learning Enables Generation of Cyclic Peptide Inhibitors with Enhanced Potency from a Small Data Set” (ACS Central Science, 2024)
# Numbered stars: 1 amine (or outer) side, 2 acyl side, 3 side chain; on linkers, the order of the positions; unused ones are H or OH. Bridge positions count the residues as written; N and C are the ends. Peptide text beside a SMILES is read from it. TBMB = c1c(C[*:1])cc(C[*:3])cc1C[*:2]
# Molecular target: T1, human urokinase-type plasminogen activator (huPA) (Homo sapiens, UniProt P00749)
# T1 construct: (UPA-LMW, Molecular Innovations, Novi, MI, USA) 1.5 nM; purchased Molecular Innovations UPA-LMW
# Experiment: huPA inhibition, fluorogenic enzyme activity assay (Z-Gly-Gly-Arg-AMC), Ki by Cheng-Prusoff
# Type: biochemical
# Conditions: 25 °C, pH 7.4, substrate 50 μM, mean ± S.E. of at least three measurements, read-out: Ki
# Description: bicyclic peptides. The activity assay was performed by incubating […] huPA with 50 μM fluorogenic substrate Z-Gly-Gly-Arg-AMC (50 μM; Bachem, Bubendorf, Switzerland) and […]
# NaCl, 10 mM MgCl2, 1mM CaCl2, 0.1% w/v BSA, 0.01% v/v Triton-X100 and 5% v/v DMSO.
# The measurements were performed on a Tecan microplate reader (Tecan infinite 200 pro, Tecan Trading AG, Switzerland) using black microfluor 96-well plate Nunc MicroWell, (Thermo Fisher Scientific, Dreieich, Germany) The enzymatic reactions were performed at 25 °C for 30 min, under shacking with an excitation wavelength of 355 nm and an emission recording at 460 nm. The initial velocities were monitored as changes in fluorescence intensity. The sigmoidal curves were fitted to the data using the following non-linear regression equation for the inhibitory dose-response curves with variable slope (2): […]
# where x is the peptide concentration, y is the residual percentage of protease activity and p is the hill slope. Half maximum inhibitory concentration (IC50) values were derived from the fitted curves from GraphPad Prism 8 8.0.0. software (GraphPad software, Inc., San Diego, California). The final Ki was subsequently determined using the Cheng-Prusoff equation (3): […]
# where Km (115 μM) is the Michaelis constant for the hydrolysis of Z-Gly-Gly-Arg-AMC catalysed by huPA which has been determined by standard Michaelis-Menten equation.
# Values were determined using either OriginPro 8G software (OriginLab Corporation, Northamppton, MA, USA) or GraphPad Prism 8.0.0. software (GraphPad software, Inc., San […]
# Recombinant production of the catalytic domain of human urokinase-type […]
# The low molecular weight (LMW) human urokinase-type plasminogen activator (huPA) comprising the truncated 23 amino acid peptide fragment of chain A (Lys136-Lys158 in […]
row,SMILES,Ki
1,"CC(C)[C@@H]1NC(=O)[C@H](CCC(=O)O)NC(=O)[C@H](Cc2ccc(O)cc2)NC(=O)[C@H](CCCN=C(N)N)NC(=O)[C@H](CO)NC(=O)[C@@H](NC(=O)[C@H](C)N)CSCc2cc3cc(c2)CSC[C@H](NC(=O)[C@H](CC(=O)O)NC1=O)C(=O)N[C@@H](CCCN=C(N)N)C(=O)NCC(=O)N[C@@H](CCCN=C(N)N)C(=O)NCC(=O)N[C@@H](CO)C(=O)N[C@@H](C)C(=O)N[C@H](C(=O)NCC(N)=O)CSC3 [UK18, reference compound] (H-ACSRYEVDCRGRGSACG-NH2; linker 2-9-16 via TBMB)",54.7 ± 8 nM
2,CC(C)[C@@H]1NC(=O)CNC(=O)CNC(=O)[C@H](CCCNC(=N)N)NC(=O)CNC(=O)[C@H](CCCNC(=N)N)NC(=O)[C@@H]2CSCc3cc(cc(c3)CSC[C@@H](C(=O)NCC(N)=O)NC1=O)CSC[C@H](NC(=O)[C@H](C)N)C(=O)N[C@@H](CC(=O)O)C(=O)N[C@@H](CCCNC(=N)N)C(=O)N[C@@H](Cc1ccccc1)C(=O)N[C@@H](C(C)C)C(=O)N[C@@H](C(C)C)C(=O)N[C@@H](CC(=O)O)C(=O)N2 [UK956] (H-ACDRFVVDCRGRGGVCG-NH2; linker 2-9-16 via TBMB),94.7 ± 0.3 nM
3,CC(C)[C@@H]1NC(=O)[C@H](CO)NC(=O)CNC(=O)[C@H](CCCNC(=N)N)NC(=O)CNC(=O)[C@H](CCCNC(=N)N)NC(=O)[C@@H]2CSCc3cc(cc(c3)CSC[C@@H](C(=O)NCC(N)=O)NC1=O)CSC[C@H](NC(=O)[C@H](C)N)C(=O)N[C@@H](CC(=O)O)C(=O)N[C@@H](CCCNC(=N)N)C(=O)N[C@@H](Cc1ccccc1)C(=O)N[C@@H](C(C)C)C(=O)N[C@@H](C(C)C)C(=O)N[C@@H](CC(=O)O)C(=O)N2 [UK958] (H-ACDRFVVDCRGRGSVCG-NH2; linker 2-9-16 via TBMB),154.9 ± 1 nM
4,CC(C)[C@@H]1NC(=O)[C@H](Cc2ccccc2)NC(=O)[C@H](CCCNC(=N)N)NC(=O)[C@H](CC(=O)O)NC(=O)[C@@H](NC(=O)[C@H](C)N)CSCc2cc3cc(c2)CSC[C@@H](C(=O)NCC(N)=O)NC(=O)[C@@H]2CCCN2C(=O)[C@H](CO)NC(=O)CNC(=O)[C@H](CCCNC(=N)N)NC(=O)CNC(=O)[C@H](CCCNC(=N)N)NC(=O)[C@H](CSC3)NC(=O)[C@H](CC(=O)O)NC(=O)[C@H](C(C)C)NC1=O [UK959] (H-ACDRFVVDCRGRGSPCG-NH2; linker 2-9-16 via TBMB),77.5 ± 0.2 nM
5,CC(C)[C@@H]1NC(=O)[C@H](CO)NC(=O)CNC(=O)[C@H](CCCNC(=N)N)NC(=O)CNC(=O)[C@H](CCCNC(=N)N)NC(=O)[C@@H]2CSCc3cc(cc(c3)CSC[C@@H](C(=O)NCC(N)=O)NC1=O)CSC[C@H](NC(=O)[C@H](C)N)C(=O)N[C@@H](CC(=O)O)C(=O)N[C@@H](CCCNC(=N)N)C(=O)N[C@@H](Cc1ccccc1)C(=O)N[C@@H](CCC(=O)O)C(=O)N[C@@H](C(C)C)C(=O)N[C@@H](CC(=O)O)C(=O)N2 [UK962] (H-ACDRFEVDCRGRGSVCG-NH2; linker 2-9-16 via TBMB),81 ± 7.9 nM
6,CC(C)[C@@H]1NC(=O)[C@H](CCC(=O)O)NC(=O)[C@H](Cc2ccc(O)cc2)NC(=O)[C@H](CCCNC(=N)N)NC(=O)[C@H](CO)NC(=O)[C@@H](NC(=O)[C@H](C)N)CSCc2cc3cc(c2)CSC[C@@H](C(=O)NCC(N)=O)NC(=O)[C@@H]2CCCN2C(=O)[C@H](CO)NC(=O)CNC(=O)[C@H](CCCNC(=N)N)NC(=O)CNC(=O)[C@H](CCCNC(=N)N)NC(=O)[C@H](CSC3)NC(=O)[C@H](CC(=O)O)NC1=O [UK964] (H-ACSRYEVDCRGRGSPCG-NH2; linker 2-9-16 via TBMB),31.4 ± 0.1 nM

# Continued, values first:
row,Ki,SMILES
1,7.4 ± 0.9 nM,CC(C)[C@@H]1NC(=O)[C@H](Cc2ccccc2)NC(=O)[C@H](CCCNC(=N)N)NC(=O)[C@H](CC(=O)O)NC(=O)[C@@H](NC(=O)[C@H](C)N)CSCc2cc3cc(c2)CSC[C@@H](C(=O)NCC(N)=O)NC(=O)[C@@H]2CCCN2C(=O)CNC(=O)CNC(=O)[C@H](CCCNC(=N)N)NC(=O)CNC(=O)[C@H](CCCNC(=N)N)NC(=O)[C@H](CSC3)NC(=O)[C@H](CC(=O)O)NC(=O)[C@H](C(C)C)NC1=O [UK957] (H-ACDRFVVDCRGRGGPCG-NH2; linker 2-9-16 via TBMB)
2,81.2 ± 0.3 nM,CC(C)[C@@H]1NC(=O)CNC(=O)CNC(=O)[C@H](CCCNC(=N)N)NC(=O)CNC(=O)[C@H](CCCNC(=N)N)NC(=O)[C@@H]2CSCc3cc(cc(c3)CSC[C@@H](C(=O)NCC(N)=O)NC1=O)CSC[C@H](NC(=O)[C@H](C)N)C(=O)N[C@@H](CC(=O)O)C(=O)N[C@@H](CCCNC(=N)N)C(=O)N[C@@H](Cc1ccccc1)C(=O)N[C@@H](CCC(=O)O)C(=O)N[C@@H](C(C)C)C(=O)N[C@@H](CC(=O)O)C(=O)N2 [UK960] (H-ACDRFEVDCRGRGGVCG-NH2; linker 2-9-16 via TBMB)
3,16.2 nM,CC(C)[C@@H]1NC(=O)[C@H](CCC(=O)O)NC(=O)[C@H](Cc2ccccc2)NC(=O)[C@H](CCCNC(=N)N)NC(=O)[C@H](CC(=O)O)NC(=O)[C@@H](NC(=O)[C@H](C)N)CSCc2cc3cc(c2)CSC[C@@H](C(=O)NCC(N)=O)NC(=O)[C@@H]2CCCN2C(=O)CNC(=O)CNC(=O)[C@H](CCCNC(=N)N)NC(=O)CNC(=O)[C@H](CCCNC(=N)N)NC(=O)[C@H](CSC3)NC(=O)[C@H](CC(=O)O)NC1=O [UK961] (H-ACDRFEVDCRGRGGPCG-NH2; linker 2-9-16 via TBMB)
4,81.4 ± 0.9 nM,CC(C)[C@@H]1NC(=O)[C@H](CCC(=O)O)NC(=O)[C@H](Cc2ccccc2)NC(=O)[C@H](CCCNC(=N)N)NC(=O)[C@H](CC(=O)O)NC(=O)[C@@H](NC(=O)[C@H](C)N)CSCc2cc3cc(c2)CSC[C@@H](C(=O)NCC(N)=O)NC(=O)[C@@H]2CCCN2C(=O)[C@H](CO)NC(=O)CNC(=O)[C@H](CCCNC(=N)N)NC(=O)CNC(=O)[C@H](CCCNC(=N)N)NC(=O)[C@H](CSC3)NC(=O)[C@H](CC(=O)O)NC1=O [UK963] (H-ACDRFEVDCRGRGSPCG-NH2; linker 2-9-16 via TBMB)
5,12.3 ± 1 nM,CC(C)[C@@H]1NC(=O)[C@H](CCC(=O)O)NC(=O)[C@H](Cc2ccc(O)cc2)NC(=O)[C@H](CCCNC(=N)N)NC(=O)[C@H](CO)NC(=O)[C@@H](NC(=O)[C@H](C)N)CSCc2cc3cc(c2)CSC[C@@H](C(=O)NCC(N)=O)NC(=O)[C@@H]2CCCN2C(=O)CNC(=O)CNC(=O)[C@H](CCCNC(=N)N)NC(=O)CNC(=O)[C@H](CCCNC(=N)N)NC(=O)[C@H](CSC3)NC(=O)[C@H](CC(=O)O)NC1=O [UK965] (H-ACSRYEVDCRGRGGPCG-NH2; linker 2-9-16 via TBMB)
6,11.6 ± 1.2 nM,CC(C)[C@@H]1NC(=O)[C@H](CCC(=O)O)NC(=O)[C@H](Cc2ccc(O)cc2)NC(=O)[C@H](CCCNC(=N)N)NC(=O)[C@H](CC(=O)O)NC(=O)[C@@H](NC(=O)[C@H](C)N)CSCc2cc3cc(c2)CSC[C@@H](C(=O)NCC(N)=O)NC(=O)[C@@H]2CCCN2C(=O)CNC(=O)CNC(=O)[C@H](CCCNC(=N)N)NC(=O)CNC(=O)[C@H](CCCNC(=N)N)NC(=O)[C@H](CSC3)NC(=O)[C@H](CC(=O)O)NC1=O [UK966] (H-ACDRYEVDCRGRGGPCG-NH2; linker 2-9-16 via TBMB)
7,18.1 ± 0.3 nM,CC(C)[C@@H]1NC(=O)[C@H](CCC(=O)O)NC(=O)[C@H](Cc2ccccc2)NC(=O)[C@H](CCCNC(=N)N)NC(=O)[C@H](CO)NC(=O)[C@@H](NC(=O)[C@H](C)N)CSCc2cc3cc(c2)CSC[C@@H](C(=O)NCC(N)=O)NC(=O)[C@@H]2CCCN2C(=O)CNC(=O)CNC(=O)[C@H](CCCNC(=N)N)NC(=O)CNC(=O)[C@H](CCCNC(=N)N)NC(=O)[C@H](CSC3)NC(=O)[C@H](CC(=O)O)NC1=O [UK967] (H-ACSRFEVDCRGRGGPCG-NH2; linker 2-9-16 via TBMB)
